These results are taken from publication PMC7180718, “Synthesis, Docking Studies and Biological Activity of New Benzimidazole- Triazolothiadiazine Derivatives as Aromatase Inhibitor” (Molecules, 2020).

Like-named read-outs stand apart in the source and are kept apart here. Some results are limits rather than exact numbers.

The subject of series [1] is NIH3T3 cells. Kind of series: MTT cytotoxicity assay, healthy NIH3T3 cells. Type of series: cell-based. The procedure: (§1) The newly synthesized compounds were evaluated for their in vitro anticancer potential against MCF-7 breast cancer cell lines by MTT assay using cisplatin as a reference standard. The 50% inhibitory concentration (IC50) values were determined for these compounds. In addition, the cytotoxic activities of compounds 5c, 5e, 5k, and 5m were assessed against healthy NIH3T3 [25] cells, in order to express the selectivity toward carcinogenic cells. The IC50 values of test compounds were determined as the mean IC50 of 4 independent experiments.
(§2) The anticancer activity of compounds 5a–5p were screened according to the MTT assays. The MTT assays were performed as previously described. Cisplatin was used as the reference drug for the MCF7 cell line in the MTT assays.

Series [2] deals with MCF-7 breast cancer cell line. As to the kind of experiment: MTT cytotoxicity assay, MCF-7. The class given is cell-based, human. The procedure:
as §1, §2

Series [3] deals with T1, recombinant human aromatase (Homo sapiens, UniProt P11511).
T1 construct: purchased Bio Vision
T1 sequence (P11511 1-503): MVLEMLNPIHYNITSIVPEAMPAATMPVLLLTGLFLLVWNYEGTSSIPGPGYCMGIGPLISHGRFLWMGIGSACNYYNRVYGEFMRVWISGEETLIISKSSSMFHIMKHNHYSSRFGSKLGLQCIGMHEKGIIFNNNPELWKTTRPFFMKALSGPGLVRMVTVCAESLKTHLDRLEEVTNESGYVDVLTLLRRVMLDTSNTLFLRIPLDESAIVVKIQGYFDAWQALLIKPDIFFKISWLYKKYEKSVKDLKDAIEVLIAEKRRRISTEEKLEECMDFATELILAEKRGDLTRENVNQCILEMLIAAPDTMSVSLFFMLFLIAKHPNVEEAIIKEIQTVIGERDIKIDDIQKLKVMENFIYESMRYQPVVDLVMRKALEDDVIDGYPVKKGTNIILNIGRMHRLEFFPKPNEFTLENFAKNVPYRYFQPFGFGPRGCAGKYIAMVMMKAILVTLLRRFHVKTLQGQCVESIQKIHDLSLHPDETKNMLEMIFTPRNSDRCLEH
As to the kind of experiment: Fluorometric aromatase (CYP19A) inhibitor screening kit (Bio Vision). To be noted: read-out: IC50 Aromatase Inhibition. The class given is biochemical.

The mark [4] stands for this setting: fluorometric kit, letrozole as reference.

`N.N.[Cl][Pt][Cl]` [Cisplatin, reference compound]: the IC50 in series [1] (n = 4) is ≥ 1000 µM; in series [2] (n = 4), 0.02 ± 0.009 µM. Turning to `c1ccc(C2=Nn3c(nnc3-c3ccc(-c4nc5ccccc5[nH]4)cc3)SC2)cc1` [Compound 5a, 3-(4-(1H-benzo[d]imidazol-2-yl)phenyl)-6-phenyl-7H-[1,2,4]triazole[3,4-b][1,3,4] thiadiazine], the midpoint of inhibition in series [2] (n = 4), the IC50, lay at 0.142 ± 0.007 µM. Regarding `Fc1ccc(C2=Nn3c(nnc3-c3ccc(-c4nc5ccccc5[nH]4)cc3)SC2)cc1` [Compound 5c, 3-(4-(1H-benzo[d]imidazol-2-yl)phenyl)-6-(4-fluorophenyl)-7H-[1,2,4]triazole[3,4-b][1,3,4] thiadiazine], the IC50 in series [1] (n = 4) came out at 81.8 ± 2.4 µM; in series [3] (setting [4]) it was 1.72 ± 0.042 µM; in series [2] (n = 4) it was 0.119 ± 0.005 µM. As for `Cc1ccc(C2=Nn3c(nnc3-c3ccc(-c4nc5ccccc5[nH]4)cc3)SC2)cc1` [Compound 5d, 3-(4-(1H-benzo[d]imidazol-2-yl)phenyl)-6-(4-methylphenyl)-7H-[1,2,4]triazole[3,4-b][1,3,4] thiadiazine], the IC50 in series [2] (n = 4) stood at 0.194 ± 0.006 µM. As to `N#Cc1ccc(C2=Nn3c(nnc3-c3ccc(-c4nc5ccccc5[nH]4)cc3)SC2)cc1` [Compound 5e, 3-(4-(1H-benzo[d]imidazol-2-yl)phenyl)-6-(4-cyanophenyl)-7H-[1,2,4]triazole[3,4-b][1,3,4] thiadiazine], the melting point fell in the range of 259.3 to 263.1 °C. Besides, the IC50 in series [1] (Mus musculus, NIH3T3, n = 4) was ≥ 1000 µM. In series [3], the IC50 amounted to 0.032 ± 0.001 µM. This molecule gave an IC50 in series [2] (Homo sapiens, MCF7, n = 4) of 0.016 ± 0.001 µM. Molecule `Brc1ccc(C2=Nn3c(nnc3-c3ccc(-c4nc5ccccc5[nH]4)cc3)SC2)cc1` [Compound 5f, 3-(4-(1H-benzo[d]imidazol-2-yl)phenyl)-6-(4-bromophenyl)-7H-[1,2,4]triazole[3,4-b][1,3,4] thiadiazine] yielded an IC50 in series [2] (n = 4) of 0.318 ± 0.019 µM. On the same count and under the same terms, then `Fc1ccc(C2=Nn3c(nnc3-c3ccc(-c4nc5ccccc5[nH]4)cc3)SC2)c(F)c1` [Compound 5g, 3-(4-(1H-benzo[d]imidazol-2-yl)phenyl)-6-(2,4-difluorohenyl)-7H-[1,2,4]triazole [3,4-b][1,3,4] thiadiazine], with 0.245 ± 0.004 µM; and `Clc1ccc(C2=Nn3c(nnc3-c3ccc(-c4nc5ccccc5[nH]4)cc3)SC2)c(Cl)c1` [Compound 5h, 3-(4-(1H-benzo[d]imidazol-2-yl)phenyl)-6-(2,4-dichlorophenyl)-7H-[1,2,4]triazole[3,4-b] [1,3,4] thiadiazine], with 0.342 ± 0.017 µM. `Clc1ccc2[nH]c(-c3ccc(-c4nnc5n4N=C(c4ccccc4)CS5)cc3)nc2c1` [Compound 5i, 3-(4-(5-chloro-1H-benzo[d]imidazol-2-yl)phenyl)-6-phenyl-7H-[1,2,4]triazole[3,4-b][1,3,4] thiadiazine] showed an IC50 in series [2] (n = 4) of 0.205 ± 0.005 µM.

For `Clc1ccc(C2=Nn3c(nnc3-c3ccc(-c4nc5cc(Cl)ccc5[nH]4)cc3)SC2)cc1` [Compound 5j, 3-(4-(5-chloro-1H-benzo[d]imidazol-2-yl)phenyl)-6-(4-chlorophenyl)-7H-[1,2,4]triazole [3,4-b][1,3,4] thiadiazine], 0.258 ± 0.011 µM corresponded to half-maximal inhibition in series [2] (n = 4) (IC50).

As to `Fc1ccc(C2=Nn3c(nnc3-c3ccc(-c4nc5cc(Cl)ccc5[nH]4)cc3)SC2)cc1` [Compound 5k, 3-(4-(5-chloro-1H-benzo[d]imidazol-2-yl)phenyl)-6-(4-fluorophenyl)-7H-[1,2,4]triazole [3,4-b][1,3,4] thiadiazine], the values for the IC50 in series [1] (n = 4), in series [3] (setting [4]) and in series [2] (n = 4) were 77.6 ± 2.1 µM, 2.28 ± 0.106 µM and 0.11 ± 0.005 µM, respectively. In series [2] (n = 4), `Cc1ccc(C2=Nn3c(nnc3-c3ccc(-c4nc5cc(Cl)ccc5[nH]4)cc3)SC2)cc1` [Compound 5l, 3-(4-(5-chloro-1H-benzo[d]imidazol-2-yl)phenyl)-6-(4-methylphenyl)-7H-[1,2,4]triazole [3,4-b][1,3,4] thiadiazine] yielded an IC50 of 0.352 ± 0.019 µM. `N#Cc1ccc(C2=Nn3c(nnc3-c3ccc(-c4nc5cc(Cl)ccc5[nH]4)cc3)SC2)cc1` [Compound 5m, 3-(4-(5-chloro-1H-benzo[d]imidazol-2-yl)phenyl)-6-(4-cyanophenyl)-7H-[1,2,4]triazole [3,4-b][1,3,4] thiadiazine]: the IC50 in series [1] (n = 4) was ≥ 1000 µM; in series [3] (setting [4]), 1.56 ± 0.064 µM; in series [2] (n = 4), 0.018 ± 0.001 µM.

Consider `Clc1ccc2[nH]c(-c3ccc(-c4nnc5n4N=C(c4ccc(Br)cc4)CS5)cc3)nc2c1` [Compound 5n, 3-(4-(5-chloro-1H-benzo[d]imidazol-2-yl)phenyl)-6-(4-bromophenyl)-7H-[1,2,4]triazole [3,4-b][1,3,4] thiadiazine], for which the IC50 in series [2] (n = 4) is 0.264 ± 0.011 µM. Still for that read-out and setting: then `Fc1ccc(C2=Nn3c(nnc3-c3ccc(-c4nc5cc(Cl)ccc5[nH]4)cc3)SC2)c(F)c1` [Compound 5o, 3-(4-(5-chloro-1H-benzo[d]imidazol-2-yl)phenyl)-6-(2,4-difluorohenyl)-7H-[1,2,4]triazole [3,4-b][1,3,4] thiadiazine], with 0.373 ± 0.011 µM; and `Clc1ccc(C2=Nn3c(nnc3-c3ccc(-c4nc5cc(Cl)ccc5[nH]4)cc3)SC2)c(Cl)c1` [Compound 5p, 3-(4-(5-chloro-1H-benzo[d]imidazol-2-yl)phenyl)-6-(2,4-dichlorophenyl)-7H-[1,2,4]triazole [3,4-b][1,3,4] thiadiazine], with 0.147 ± 0.001 µM.
